Source: US20250177392A1, “BROAD SPECTRUM INHIBITORS OF CYTOMEGALOVIRUS” (MICROBIOTIX, INC., priority 2022, published 2025)

Tests used:
HCMV strain AD169^R = assay: CMV infection (neutralization) assay, GFP/IE1 readout 24 hpi, AD169^R; type: cell-based, Human cytomegalovirus; details: Human betaherpesvirus 5, AD169, Fibroblast
Method: Fibroblasts and ARPE-19 cells (10^4) were plated in 96-well plates (Greiner, Monroe, NC). The following day the cells were pretreated for 1 hour at 37° C. with increasing concentrations of the respective novel NAPA compounds described herein or DMSO in triplicate prior to infection with the respective viruses. At 18 hours post infection (hpi) cells were stained using a rabbit anti-IE1 antibody followed by an anti-rabbit Alexa 647 and measured using a Celigo Cytometer (Parsons et al., Antiviral Res., 193:105124 (2021); Stein et al., Nat. Commun., 10:2699 (2019)). Using the DMSO treated cells as 100% infection, the percent infection of the NAPA compound-treated cells was determined. The half maximal inhibitory (IC50) values were calculated using Prism9's nonlinear fit [inhibitor]-vs-response (four parameters) analysis of these averages and extrapolation to the concentration that would produce 50% infection relative to DMSO treatment.
To further evaluate the inhibitory properties of MBXC-4302 against CMV, we utilized the AD169 CMV virus strain containing the UL131-UL128 open reading frame of the HCMV strain TR and expressing EGFP (AD169^R) (Wang D. and Shenk T., Proc. Nat. Acad. Sci., USA, 102:18153-18158 (2005)) and TB40/E infection of human fibroblasts (NHDF) and ARPE-19 epithelial cells in the presence of increasing concentration of compound (FIG. 2A-D). Infection was analyzed 24 hours post infection (hpi) by measuring GFP fluorescence encoded by AD169^R or using an anti-IE1 antibody for staining TB40/E infected cells.
NAPA variants with modified groups were evaluated for inhibition of CMV infection in fibroblasts. AD169^R infected fibroblasts were treated with NAPA compounds MBX-4992, MBXC-4325, MBXC-4330, and MBXC-4336 (0-50 μM) and analyzed for infection at 24 hpi (FIG. 6A-D). The infected cells were probed for IE1 as an indication of virus infection.

[1] = test system: TR, Towne, and TB40/E strains; assay: CMV infection assay of MBXC-4336 with further strains; type: cell-based, Human cytomegalovirus; details: NHDF cells, 24 hpi, IE1 (FIG. 11F-H)
Method: (§1) HCMV strains AD169 (A), TB40/E Flag YFP (B), Towne (C and G), TR (D and F), Merlin (E), and TB40/E (H) infection of NHDF cells pre-treated with DMSO and 0, 1, 5, or 20 μM MBX-4992 or MBXC-4336, respectively, were assessed at 24 hpi based on IE1 expression by anti-IE1 immunostain. TB40/E (I) (MOI 0.25) and AD169^R (J) (MOI 0.25) infection of HTR-svNeo cells treated with DMSO and 0, 1, 5, or 20 μM MBX-4992 were assessed at 24 hpi based on IE1 expression by anti-IE1 immunostain. The % infection was determined using DMSO-treated as 100% infection. The error bars represent values in triplicate. Statistical tests were performed using ordinary one-way ANOVA with multiple comparisons to DMSO treated cells as a control and a Dunnett's post-test *, p<0.05; **, p<0.01; ****, p<0.0001.
(§2) Fibroblasts and ARPE-19 cells (10^4) were plated in 96-well plates (Greiner, Monroe, NC). […] At 18 hours post infection (hpi) cells were stained using a rabbit anti-IE1 antibody followed by an anti-rabbit Alexa 647 and measured using a Celigo Cytometer (Parsons et al., Antiviral Res., 193:105124 (2021); Stein et al., Nat. Commun., 10:2699 (2019)). Using the DMSO treated cells as 100% infection, the percent infection of the NAPA compound-treated cells was determined. […]

EBV Akata = assay: Herpes virus panel neutralization, EBV; type: cell-based, Epstein-Barrvirus
Method: (§3) To determine the specificity of MBX-4992, additional neutralization experiments were conducted using a panel of herpes viruses performed in the presence of MBX-4992. […] Collectively, the antiviral activity of MBX-4992 is equivalent to that of GCV indicating specific inhibition of CMV replication.

HSV-2 G = assay: Herpes virus panel neutralization, HSV-2; type: cell-based, Herpes simplex virus 2
Method: as §3

AD169^R = assay: Generation of infectious virions (supernatant infectious dose); type: cell-based, Human cytomegalovirus; details: MRC5 fibroblasts and ARPE-19 cells, MOI 0.5, 1-20 μM for 5 days
Method: FIGS. 13A and B are graphs showing that MBX-4992 limits the generation of infectious virions in fibroblasts and epithelial cells. MRC5 and ARPE-19 cells infected with AD169^R (MOI 0.5) were treated with DMSO, MBX-4992 (1, 5, 10, and 20 μM), and ganciclovir (5 μM) for 5 days, washed, and replaced with media for 3 days. The supernatant of MRC5 treated-cells (A) and ARPE-19-treated (B) cells was used to infect MRC5 cells. Virus infection was analyzed 24 hpi using GFP fluorescent signal as the readout with a Celigo cytometer. The viral infectious dose (IU/ml) was determined from each condition. The error bars are based on differences of infectious dose from 5 samples. Statistical tests were performed using ordinary one-way ANOVA with multiple comparisons to DMSO treated cells as a control and a Dunnett's post-test ****, p<0.0001.

[2] = Maximum solubility in water by nephlometry; type: physicochemical; details: Maximum solubility in water determined by nephlometry
HHV-6B Z29 = assay: Herpes virus panel neutralization, HHV-6B; type: cell-based, Human herpes virus 6B
Method: as §3

[3] = Murine liver microsome stability; type: in vitro ADME; details: % remaining after 30 min at 37° C. in the presence of NADPH
[4] = test system: CMV strains AD169, TB40/E^Flag-YFP, Towne, and TR; assay: CMV infection assay, panel of strains in fibroblasts; type: cell-based, Human cytomegalovirus; details: Human betaherpesvirus 5, AD169, Fibroblast, read-out: IC50 values ranging
Method: as §1, §2

AD169 and AD169^R = assay: IE1 expression 2 days post-infection in fibroblasts; type: cell-based, Human cytomegalovirus
Method: HCMV strains AD169^R (A) and AD169 (B) infection (MOI 0.2) of NHDF cells pre-treated with 0, 5, and 20 μM MBX-4992 were assessed at 1 dpi or 2 dpi based on IE1 expression by anti-IE1 immunostain. The % infection was determined using DMSO-treated as 100% infection. The error bars represent values in triplicate. Statistical tests were performed using ordinary one-way ANOVA with multiple comparisons to DMSO treated cells as a control and a Dunnett's post-test; **, p<0.01; ****, p<0.0001. (C) Total cell lysates from AD169^R-infected (MOI 0.2) ARPE-19 cells pre-treatment with DMSO, MBX-4992 (1-20 μM) or heparin (50 μg/mL) collected at 24 hpi were subjected to Western blot analysis using a rabbit anti-IE-1 antibody (lanes 1-7) and an anti-GAPDH antibody (lanes 8-14) as a loading control. The molecular weight markers and respective proteins are indicated.
(FIG. 11A-G). […] The IC50 values were similar in diverse cell types and among the different strains further supporting that NAPA compounds are effective at inhibiting CMV infection.

Cc1nc(Nc2cccc(NC(=O)c3ccco3)c2)cc(N2CCCCC2)n1 [MBXC-4336]
IC50 (HCMV strain AD169^R): 2.9 µM | effectiveness against further strains [1]: effectiveness of MBXC-4336 was validated

Cc1nc(Nc2ccc(NC(=O)c3ccco3)cc2)cc(N2CCCC2)n1 [MBX-4992]
SI (EBV Akata): >3 | IC50 (EBV Akata; human gammaherpesvirus 4): 30.9 µM | SI (HSV-2 G): 1 | IC50 (HSV-2 G; Human alphaherpesvirus 2): > 150 µM | generation of infectious virions (AD169^R): significantly decreased generation of infectious AD169^R virions | Sol [2]: high solubility | solubility kinetic ([2]; kinetic from dmso stock): > 200 µM | SI (HHV-6B Z29): >2 | IC50 (HHV-6B Z29; Human betaherpesvirus 6B): 43.7 µM | MLMS [3]: 49% | IC50 [4]: 0.5 to 8 µM | IE1 expression (AD169 and AD169^R): similarly effective at limiting IE1 expression
